Values of other authors in US6491946B1, “Pharmaceutical levothyroxine preparation” (Merck Patent Gesellschaft, priority 1998, dated 2002).
Like-named read-outs stand apart in the source and are kept apart here.

Solubility (in ethanol): soluble with great difficulty | Solubility (in water): soluble with great difficulty
Compound: N[C@@H](Cc1cc(I)c(Oc2cc(I)c(O)c(I)c2)c(I)c1)C(=O)O [Levothyroxine sodium, levothyroxine sodium]
